Measurements from patent US11970474B2, “Substituted benzodiazoles and use thereof in therapy” (THOMAS HELLEDAYS STIFTELSE FÖR MEDICINSK FORSKNING, priority 2018, dated 2024).

Key:
Assay in all cases: Cell viability assay (resazurin)
Type in all cases: cell-based
786-0 = conditions: Homo sapiens, 120 h, Cancer, Renal Cell Adenocarcinoma, five day incubation
Description: (§1) A dilution series of compound or vehicle are transferred to 96-well plates. Cells are seeded into the plate (500-10,000 cells/well) in suitable media and incubated for five days in 5% CO2 at 37° C. Thereafter, resazurin (diluted in suitable medium or PBS) are added to a final concentration 10 μg/ml resazurin at 37° C. for 2-4 hours before measuring the fluorescence (Ex544/Em590), essentially as described (Riss, Terry L. et al., “Cell Viability Assays.” In Assay Guidance Manual, ed. G. Sitta Sittampalam, et al. Bethesda (Md.): Eli Lilly & Company and the National Center for Advancing Translational Sciences (2004) http://www.ncbi.nlm.nih.gov/books/NBK144065/).
(§2) The compounds to be tested are nano-dispensed in duplicate in 11 concentrations, directly in 384-well cell plates, with a final DMSO concentration<1%. Cells are seeded in cell plates, pre-dispensed with compounds (200-2500 cells/well in 50 μl). After three or five days culture in 5% CO2, 37° C., resazurin diluted in PBS is added, 10 μl/well, to a final concentration of 10 μg/ml and cells are incubated 2-4 hours before measuring fluorescence (Ex544/Em590), as described (ibid.). Results obtained for selected example compounds described herein on cancer- and non-transformed cell lines are provided in the table below (Table 3) and summarized in FIG. 1. Where indicated, combination indexes was measured with CompuSyn software (www.compusyn.com) by the method of Chou-Talalay (Chou, Ting-Chao., Cancer Research, 70(2), 440-46 (2010)).

A3 = conditions: 120 h, Cancer, Acute lymphoblastic leukemia, five day incubation
Description: as §1, §2

A549 = conditions: Homo sapiens, 120 h, Cancer, Lung carcinoma, five day incubation
Description: as §1, §2

ACHN = conditions: Homo sapiens, 120 h, Cancer, Renal Cell Adenocarcinoma, five day incubation
Description: as §1, §2

BJ Ras = conditions: 120 h, Cancer, Transformed fibroblast, five day incubation
Description: as §1, §2

BJ Tert = conditions: 120 h, Normal, immortalized fibroblast, five day incubation
Description: as §1, §2

CCD841 = conditions: CCD-841, 120 h, Normal, fetal epithelial colon, five day incubation
Description: as §1, §2

CCRF-CEM = conditions: Homo sapiens, 120 h, Cancer, Acute Lymphoblastic Leukemia, five day incubation
Description: as §1, §2

DU145 = conditions: Homo sapiens, DU-145, 120 h, Cancer, Prostate carcinoma, five day incubation
Description: as §1, §2

H460 = conditions: Homo sapiens, NCI-H460, 120 h, Cancer, large cell lung carcinoma, five day incubation
Description: as §1, §2

HCT116 + Chr3 = conditions: Homo sapiens, HCT-116, 120 h, Cancer, Colorectal Carcinoma, five day incubation
Description: as §1, §2

HCT116 = conditions: Homo sapiens, HCT-116, 120 h, Cancer, Colorectal Carcinoma, five day incubation
Description: as §1, §2

HL-60 = conditions: Homo sapiens, 120 h, Cancer, Acute Promyelocytic Leukemia, five day incubation
Description: as §1, §2

HeLa = conditions: Homo sapiens, 120 h, Cancer, Cervical adenocarcinoma, five day incubation
Description: as §1, §2

Jurkat = conditions: Homo sapiens, 120 h, Cancer, Acute lymphoblastic leukemia, five day incubation
Description: as §1, §2

LCL#1 = conditions: 120 h, Normal, Epstein-Barr-virus-transformed lymphoblastoid cell lines, five day incubation
Description: as §1, §2

M059K = conditions: 120 h, Cancer, Malignant Glioblastoma, five day incubation
Description: as §1, §2

MOLT4 = conditions: Homo sapiens, MOLT-4, 120 h, Cancer, Acute Lymphoblastic Leukemia, five day incubation
Description: as §1, §2

MRC5 = conditions: Homo sapiens, 120 h, Normal, fetal lung fibroblast, five day incubation
Description: as §1, §2

MV4-11 = conditions: Homo sapiens, 120 h, Cancer, acute monocytic leukemia, five day incubation
Description: as §1, §2

PC3 = conditions: Homo sapiens, PC-3, 120 h, Cancer, Prostate adenocarcinoma, five day incubation
Description: as §1, §2

PL-21 = conditions: 120 h, Cancer, acute myeloid leukemia, five day incubation
Description: as §1, §2

RFX393 = conditions: 120 h, Cancer, Renal cancer cell lines, five day incubation
Description: as §1, §2

Rec1 = conditions: Homo sapiens, 120 h, Cancer, Mantle Cell Lymphoma, five day incubation
Description: as §1, §2

Reh = conditions: Homo sapiens, 120 h, Cancer, Acute Lymphocytic Leukemia, five day incubation
Description: as §1, §2

SW480 = conditions: Homo sapiens, 120 h, Cancer, Colorectal Adenocarcinoma, five day incubation
Description: as §1, §2

SaOS2 = conditions: Homo sapiens, SAOS-2, 120 h, Cancer, Osteosarcoma, five day incubation
Description: as §1, §2

T98G = conditions: Homo sapiens, 120 h, Cancer, Glioblastoma Multiforme, five day incubation
Description: as §1, §2

U2OS = conditions: Homo sapiens, 120 h, Cancer, Osteosarcoma, five day incubation
Description: as §1, §2

UO31 = conditions: Homo sapiens, UO-31, 120 h, Cancer, Renal carcinoma, five day incubation
Description: as §1, §2

VH10 = conditions: 120 h, Normal, fibroblast, five day incubation
Description: as §1, §2

Row | SMILES | EC50 (786-0) | EC50 (A3) | EC50 (A549) | EC50 (ACHN) | EC50 (BJ Ras) | EC50 (BJ Tert) | EC50 (CCD841) | EC50 (CCRF-CEM) | EC50 (DU145) | EC50 (H460) | EC50 (HCT116 + Chr3) | EC50 (HCT116) | EC50 (HL-60) | EC50 (HeLa) | EC50 (Jurkat) | EC50 (LCL#1) | EC50 (M059K) | EC50 (MOLT4) | EC50 (MRC5) | EC50 (MV4-11) | further results
1 | Cc1cc(NC(=O)N2CCC(n3c(=O)[nH]c4c(Br)cccc43)CC2)ccc1I [Example 50, 4-(4-Bromo-2-oxo-2,3-dihydro-1H-1,3-benzodiazol-1-yl)-N-(4-iodo-3-methylphenyl)piperidine-1-carboxamide] | 33 µM | 9.8 µM | 8.5 µM | 2.8 µM | 14 µM | 31 µM | 54 µM | 7.9 µM | 3.1 µM | 17 µM | 20 µM | 29 µM | 24 µM | 35 µM | 15 µM | 40 µM | 27 µM | 17 µM | 47 µM | 9.6 µM | EC50 (PC3): 29 µM; EC50 (PL-21): 18 µM; EC50 (RFX393): 12 µM; EC50 (Rec1): 15 µM; EC50 (Reh): 17 µM; EC50 (SW480): 30 µM; EC50 (SaOS2): 20 µM; EC50 (T98G): 17 µM; EC50 (U2OS): 25 µM; EC50 (UO31): 3.2 µM; EC50 (VH10): 48 µM
2 | O=C(Nc1ccc(Cl)c(Cl)c1)N1CCC(n2c(=O)[nH]c3c(-c4ccc(CO)nc4)cccc32)CC1 [Example 28, N-(3,4-dichlorophenyl)-4-{4-[6-(hydroxymethyl)pyridin-3-yl]-2-oxo-2,3-dihydro-1H-1,3-benzodiazol-1-yl}piperidine-1-carboxamide] | 15 µM | 7.9 µM | 11 µM | 8.5 µM | 15 µM | 24 µM | 40 µM | 11 µM | 11 µM | 14 µM | 17 µM | 15 µM | 14 µM | 16 µM | 14 µM | 34 µM | 19 µM | 13 µM | 21 µM | 6.5 µM | EC50 (PC3): 19 µM; EC50 (PL-21): 10 µM; EC50 (RFX393): 14 µM; EC50 (Rec1): 13 µM; EC50 (Reh): 15 µM; EC50 (SW480): 20 µM; EC50 (SaOS2): 16 µM; EC50 (T98G): 19 µM; EC50 (U2OS): 16 µM; EC50 (UO31): 7.1 µM; EC50 (VH10): 21 µM
3 | O=C(Nc1ccc(I)cc1)N1CCC(n2c(=O)[nH]c3c(Br)cccc32)CC1 [Example 13, 4-(4-Bromo-2-oxo-2,3-dihydro-1H-1,3-benzodiazol-1-yl)-N-(4-iodophenyl)piperidine-1-carboxamide] | 30 µM | 11 µM | 12 µM | 2.3 µM | 4.8 µM | 34 µM | 43 µM | 15 µM | 13 µM | 10 µM | 21 µM | 18 µM | 22 µM | 22 µM | 13 µM | 33 µM | 20 µM | 15 µM | 75 µM | 9.4 µM | EC50 (PC3): 35 µM; EC50 (PL-21): 15 µM; EC50 (RFX393): 20 µM; EC50 (Rec1): 14 µM; EC50 (Reh): 19 µM; EC50 (SW480): 33 µM; EC50 (SaOS2): 21 µM; EC50 (T98G): 14 µM; EC50 (U2OS): 20 µM; EC50 (UO31): 2.9 µM; EC50 (VH10): 32 µM
